In ChEMBL document CHEMBL4507274 (2021):

Legend:
[1] = target: 5-hydroxytryptamine receptor 2A (Homo sapiens) (UniProt P28223); conditions: Compound concentration 10.0 uM
[2] = target: Tyrosine-protein kinase BTK (Homo sapiens) (UniProt Q06187); assay: BTK (h) Upstate kinase activity assay; conditions: Compound concentration 10.0 uM
[3] = target: Phosphatidylinositol 4,5-bisphosphate 3-kinase catalytic subunit alpha isoform (Homo sapiens) (UniProt P42336); assay: PIK3 (h) Upstate kinase activity assay; conditions: Compound concentration 10.0 uM
[4] = target: Cyclin-dependent kinase 5/CDK5 activator 1 (Homo sapiens) (UniProt Q00535+Q15078); assay: CDK5/ p35 (h) Upstate kinase activity assay; format: protein-complex assay; conditions: Compound concentration 10.0 uM
Cyclin-dependent kinase 5/CDK5 activator 1 (Homo sapiens), sequence (Q00535 whole entry): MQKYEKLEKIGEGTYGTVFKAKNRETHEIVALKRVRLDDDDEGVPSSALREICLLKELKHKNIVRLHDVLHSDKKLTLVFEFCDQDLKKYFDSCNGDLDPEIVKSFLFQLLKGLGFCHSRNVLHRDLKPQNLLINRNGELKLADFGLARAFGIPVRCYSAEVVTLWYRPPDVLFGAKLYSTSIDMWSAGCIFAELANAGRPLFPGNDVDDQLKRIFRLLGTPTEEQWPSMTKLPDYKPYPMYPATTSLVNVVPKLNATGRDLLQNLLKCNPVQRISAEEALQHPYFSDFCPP
Cyclin-dependent kinase 5/CDK5 activator 1 (Homo sapiens), sequence (Q15078 99-307 partner limits assumed): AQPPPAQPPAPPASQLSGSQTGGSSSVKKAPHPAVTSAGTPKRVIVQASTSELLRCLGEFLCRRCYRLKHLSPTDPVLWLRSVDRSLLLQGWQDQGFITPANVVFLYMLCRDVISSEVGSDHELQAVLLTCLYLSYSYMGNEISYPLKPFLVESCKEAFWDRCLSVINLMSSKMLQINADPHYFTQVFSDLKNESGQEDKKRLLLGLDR

[5] = target: Ribosomal protein S6 kinase alpha-1 (Homo sapiens) (UniProt Q15418); assay: Rsk1 (h) Upstate kinase activity assay; conditions: Compound concentration 10.0 uM
[6] = target: High affinity nerve growth factor receptor (Homo sapiens) (UniProt P04629); conditions: Compound concentration 10.0 uM
[7] = target: Tyrosine-protein kinase Fes/Fps (Homo sapiens) (UniProt P07332); assay: Fes (h) Upstate kinase activity assay; conditions: Compound concentration 10.0 uM
[8] = target: MAP kinase-activated protein kinase 2 (Homo sapiens) (UniProt P49137); assay: MAPKAP-K2 (h) Upstate kinase activity assay; conditions: Compound concentration 10.0 uM
MAP kinase-activated protein kinase 2 (Homo sapiens), sequence (P49137 whole entry, looked up): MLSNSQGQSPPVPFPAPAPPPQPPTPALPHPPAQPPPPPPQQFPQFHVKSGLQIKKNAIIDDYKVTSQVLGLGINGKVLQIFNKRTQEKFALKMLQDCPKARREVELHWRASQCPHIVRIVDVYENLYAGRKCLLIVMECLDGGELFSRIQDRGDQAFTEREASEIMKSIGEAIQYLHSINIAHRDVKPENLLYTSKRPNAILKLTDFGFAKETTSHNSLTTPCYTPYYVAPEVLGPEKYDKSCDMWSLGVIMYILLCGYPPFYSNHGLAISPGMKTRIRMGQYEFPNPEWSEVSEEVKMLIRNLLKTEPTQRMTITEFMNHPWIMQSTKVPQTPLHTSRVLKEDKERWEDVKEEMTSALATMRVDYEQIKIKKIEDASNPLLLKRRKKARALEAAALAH

[9] = Melanoma B16-FO cell line MDS Pharma Services Proliferation Assay; format: functional, cell-based
T47D = assay: Breast T-47D cell line MDS Pharma Services Proliferation Assay; format: functional, cell-based, Homo sapiens
[10] = target: T1, Dual specificity mitogen-activated protein kinase kinase 7 (Homo sapiens) (UniProt O14733); assay: MKK7βbeta(h) Upstate kinase activity assay; conditions: Compound concentration 10.0 uM
T1 sequence (whole entry): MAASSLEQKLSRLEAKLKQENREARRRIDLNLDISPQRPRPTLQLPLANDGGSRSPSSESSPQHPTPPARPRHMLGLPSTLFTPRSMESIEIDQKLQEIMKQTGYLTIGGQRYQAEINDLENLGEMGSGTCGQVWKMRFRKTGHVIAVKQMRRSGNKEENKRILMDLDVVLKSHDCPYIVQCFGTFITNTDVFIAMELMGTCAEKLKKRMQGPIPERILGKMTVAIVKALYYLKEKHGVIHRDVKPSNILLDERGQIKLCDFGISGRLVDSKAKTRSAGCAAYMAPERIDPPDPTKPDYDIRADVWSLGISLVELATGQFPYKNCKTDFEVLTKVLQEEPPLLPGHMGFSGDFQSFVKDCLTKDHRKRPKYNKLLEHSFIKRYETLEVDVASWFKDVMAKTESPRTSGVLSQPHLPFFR

SK-N-MC = assay: Neuroepithelioma SK-N-MC cell line MDS Pharma Services Proliferation Assay; format: functional, cell-based, Homo sapiens
Hep 3B2 = assay: Liver Hep 3B cell line MDS Pharma Services Proliferation Assay; format: functional, cell-based, Homo sapiens
[11] = target: Ribosomal protein S6 kinase alpha-5 (Homo sapiens) (UniProt O75582); assay: MSK1 (h) Upstate kinase activity assay; conditions: Compound concentration 10.0 uM
[12] = target: Tyrosine-protein kinase SYK (Homo sapiens) (UniProt P43405); assay: Syk (h) Upstate kinase activity assay; conditions: Compound concentration 10.0 uM
[13] = target: Sigma intracellular receptor 2 (Homo sapiens) (UniProt Q5BJF2); conditions: Compound concentration 10.0 uM
Sigma intracellular receptor 2 (Homo sapiens), sequence (Q5BJF2 whole entry): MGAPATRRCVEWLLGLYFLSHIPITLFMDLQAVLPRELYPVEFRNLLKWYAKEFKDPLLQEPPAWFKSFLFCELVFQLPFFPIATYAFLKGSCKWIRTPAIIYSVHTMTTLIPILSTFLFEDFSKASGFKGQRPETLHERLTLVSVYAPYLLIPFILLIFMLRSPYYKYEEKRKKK

[14] = target: RAC-gamma serine/threonine-protein kinase (Homo sapiens) (UniProt Q9Y243); assay: PKBγgamma(h) Upstate kinase activity assay; conditions: Compound concentration 10.0 uM
RAC-gamma serine/threonine-protein kinase (Homo sapiens), sequence (Q9Y243 whole entry): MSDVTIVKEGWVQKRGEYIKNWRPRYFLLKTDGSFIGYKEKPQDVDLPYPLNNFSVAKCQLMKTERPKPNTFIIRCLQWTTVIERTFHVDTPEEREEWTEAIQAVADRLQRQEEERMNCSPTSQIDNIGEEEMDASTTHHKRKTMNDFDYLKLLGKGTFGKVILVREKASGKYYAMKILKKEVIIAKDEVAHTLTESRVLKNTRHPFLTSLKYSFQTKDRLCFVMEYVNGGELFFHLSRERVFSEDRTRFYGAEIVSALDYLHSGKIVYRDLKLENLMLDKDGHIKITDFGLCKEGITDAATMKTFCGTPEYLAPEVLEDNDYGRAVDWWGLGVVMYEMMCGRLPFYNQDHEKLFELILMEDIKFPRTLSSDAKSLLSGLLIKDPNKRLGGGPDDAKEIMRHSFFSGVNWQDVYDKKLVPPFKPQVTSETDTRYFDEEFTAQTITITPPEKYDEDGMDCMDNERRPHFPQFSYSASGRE

[15] = target: Serine/threonine-protein kinase pim-1 (Homo sapiens) (UniProt P11309); assay: Pim-1 (h) Upstate kinase activity assay; conditions: Compound concentration 10.0 uM
[16] = target: Glycogen synthase kinase-3 alpha (Homo sapiens) (UniProt P49840); assay: GSK3alpha (h) Upstate kinase activity assay; conditions: Compound concentration 10.0 uM
PC-6 = assay: Lung PC-6 cell line MDS Pharma Services Proliferation Assay; format: functional, cell-based, Homo sapiens
[17] = target: Proto-oncogene tyrosine-protein kinase ROS (Homo sapiens) (UniProt P08922); assay: Ros (h) Upstate kinase activity assay; conditions: Compound concentration 10.0 uM
Proto-oncogene tyrosine-protein kinase ROS (Homo sapiens), sequence (P08922 whole entry): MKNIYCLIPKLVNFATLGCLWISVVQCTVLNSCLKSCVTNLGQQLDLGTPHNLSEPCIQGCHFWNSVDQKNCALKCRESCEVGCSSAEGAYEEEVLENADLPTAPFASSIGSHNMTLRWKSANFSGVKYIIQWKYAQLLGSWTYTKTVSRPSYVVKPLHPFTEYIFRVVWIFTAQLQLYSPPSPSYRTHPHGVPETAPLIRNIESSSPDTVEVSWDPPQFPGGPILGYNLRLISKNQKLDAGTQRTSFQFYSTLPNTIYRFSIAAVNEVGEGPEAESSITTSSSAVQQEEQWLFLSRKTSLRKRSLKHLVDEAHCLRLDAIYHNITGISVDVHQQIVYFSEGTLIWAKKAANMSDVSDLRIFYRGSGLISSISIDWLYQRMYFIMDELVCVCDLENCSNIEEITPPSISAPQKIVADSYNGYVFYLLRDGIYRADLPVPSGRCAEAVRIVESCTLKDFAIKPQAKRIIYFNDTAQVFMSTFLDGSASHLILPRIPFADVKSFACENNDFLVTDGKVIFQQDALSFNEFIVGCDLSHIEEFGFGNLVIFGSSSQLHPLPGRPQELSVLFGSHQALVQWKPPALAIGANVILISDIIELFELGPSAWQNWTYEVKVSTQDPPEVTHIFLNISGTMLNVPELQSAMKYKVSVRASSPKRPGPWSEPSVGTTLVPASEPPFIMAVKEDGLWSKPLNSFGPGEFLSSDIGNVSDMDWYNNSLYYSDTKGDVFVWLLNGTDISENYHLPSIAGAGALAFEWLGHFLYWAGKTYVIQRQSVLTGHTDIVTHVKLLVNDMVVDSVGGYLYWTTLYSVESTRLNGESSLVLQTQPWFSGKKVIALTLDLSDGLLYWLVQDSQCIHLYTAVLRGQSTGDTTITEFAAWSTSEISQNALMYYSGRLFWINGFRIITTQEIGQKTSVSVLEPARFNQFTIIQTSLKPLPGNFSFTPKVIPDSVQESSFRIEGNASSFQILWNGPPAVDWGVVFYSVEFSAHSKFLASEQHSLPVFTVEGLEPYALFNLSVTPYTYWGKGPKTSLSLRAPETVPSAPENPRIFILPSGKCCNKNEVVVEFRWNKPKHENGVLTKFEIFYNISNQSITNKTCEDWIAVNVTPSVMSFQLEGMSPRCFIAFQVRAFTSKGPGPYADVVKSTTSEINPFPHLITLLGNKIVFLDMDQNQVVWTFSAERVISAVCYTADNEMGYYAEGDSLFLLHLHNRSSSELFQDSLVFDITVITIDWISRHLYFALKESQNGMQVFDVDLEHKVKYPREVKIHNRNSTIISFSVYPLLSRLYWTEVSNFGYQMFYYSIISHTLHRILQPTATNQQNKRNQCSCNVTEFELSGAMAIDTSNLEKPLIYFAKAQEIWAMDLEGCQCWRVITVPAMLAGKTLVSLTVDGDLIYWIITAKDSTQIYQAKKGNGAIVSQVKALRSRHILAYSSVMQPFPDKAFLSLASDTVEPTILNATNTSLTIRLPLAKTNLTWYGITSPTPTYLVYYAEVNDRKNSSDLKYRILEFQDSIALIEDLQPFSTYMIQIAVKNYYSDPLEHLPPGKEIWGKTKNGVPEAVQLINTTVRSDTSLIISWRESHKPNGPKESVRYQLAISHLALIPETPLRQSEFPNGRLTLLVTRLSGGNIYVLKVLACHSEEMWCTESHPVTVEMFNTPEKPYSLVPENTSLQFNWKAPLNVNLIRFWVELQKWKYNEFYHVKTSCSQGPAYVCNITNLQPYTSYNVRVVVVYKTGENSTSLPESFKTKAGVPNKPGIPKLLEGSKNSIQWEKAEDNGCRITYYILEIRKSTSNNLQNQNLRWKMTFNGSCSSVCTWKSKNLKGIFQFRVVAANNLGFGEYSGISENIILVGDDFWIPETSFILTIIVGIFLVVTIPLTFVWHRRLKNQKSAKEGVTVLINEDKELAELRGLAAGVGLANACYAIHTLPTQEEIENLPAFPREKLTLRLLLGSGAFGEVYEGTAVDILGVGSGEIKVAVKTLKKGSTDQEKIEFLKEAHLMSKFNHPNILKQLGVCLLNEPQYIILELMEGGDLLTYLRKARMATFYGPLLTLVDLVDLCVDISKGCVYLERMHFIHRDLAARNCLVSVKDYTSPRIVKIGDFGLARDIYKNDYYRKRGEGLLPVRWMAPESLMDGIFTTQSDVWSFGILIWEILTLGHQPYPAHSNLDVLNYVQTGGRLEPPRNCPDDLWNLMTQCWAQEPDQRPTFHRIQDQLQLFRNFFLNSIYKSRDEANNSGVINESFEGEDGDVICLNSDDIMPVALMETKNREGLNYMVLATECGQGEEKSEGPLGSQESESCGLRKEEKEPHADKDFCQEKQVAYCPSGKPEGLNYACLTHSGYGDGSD

[18] = target: Fibroblast growth factor receptor 3 (Homo sapiens) (UniProt P22607); assay: FGFR3 (h) Upstate kinase activity assay; conditions: Compound concentration 10.0 uM
[19] = target: T2, Mitogen-activated protein kinase 12 (Homo sapiens) (UniProt P53778); assay: SAPK3 (h) Upstate kinase activity assay; conditions: Compound concentration 10.0 uM
T2 sequence (whole entry): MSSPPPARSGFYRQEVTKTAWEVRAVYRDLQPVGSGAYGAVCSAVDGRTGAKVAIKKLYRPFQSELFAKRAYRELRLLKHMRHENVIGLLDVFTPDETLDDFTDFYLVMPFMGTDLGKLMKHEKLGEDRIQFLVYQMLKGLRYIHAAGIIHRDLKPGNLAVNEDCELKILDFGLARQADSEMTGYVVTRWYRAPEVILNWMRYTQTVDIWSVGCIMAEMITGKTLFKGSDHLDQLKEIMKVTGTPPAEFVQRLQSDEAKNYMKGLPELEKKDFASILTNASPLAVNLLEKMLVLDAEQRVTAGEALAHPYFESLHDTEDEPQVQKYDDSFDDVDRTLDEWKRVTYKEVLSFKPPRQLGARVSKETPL

DLD-1 = assay: Colon DLD-1 cell line MDS Pharma Services Proliferation Assay; format: functional, cell-based, Homo sapiens
[20] = target: Mitogen-activated protein kinase 9 (Homo sapiens) (UniProt P45984); assay: JNK2alpha2 (h) Upstate kinase activity assay; conditions: Compound concentration 10.0 uM
Mitogen-activated protein kinase 9 (Homo sapiens), sequence (P45984 whole entry, looked up): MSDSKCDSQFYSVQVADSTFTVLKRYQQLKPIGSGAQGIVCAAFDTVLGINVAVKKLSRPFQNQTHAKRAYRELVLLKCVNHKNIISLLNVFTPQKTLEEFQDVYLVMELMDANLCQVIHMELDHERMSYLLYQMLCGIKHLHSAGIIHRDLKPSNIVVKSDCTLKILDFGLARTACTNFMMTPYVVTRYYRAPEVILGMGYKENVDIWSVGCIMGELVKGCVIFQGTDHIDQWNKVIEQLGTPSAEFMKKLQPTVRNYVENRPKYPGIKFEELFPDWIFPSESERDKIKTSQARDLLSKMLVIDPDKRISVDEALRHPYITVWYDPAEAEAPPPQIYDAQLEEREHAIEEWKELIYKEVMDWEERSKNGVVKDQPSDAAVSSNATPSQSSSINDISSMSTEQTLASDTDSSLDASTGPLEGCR

Tyrosine-protein kinase BTK (Homo sapiens), sequence (Q06187 whole entry, canonical isoform): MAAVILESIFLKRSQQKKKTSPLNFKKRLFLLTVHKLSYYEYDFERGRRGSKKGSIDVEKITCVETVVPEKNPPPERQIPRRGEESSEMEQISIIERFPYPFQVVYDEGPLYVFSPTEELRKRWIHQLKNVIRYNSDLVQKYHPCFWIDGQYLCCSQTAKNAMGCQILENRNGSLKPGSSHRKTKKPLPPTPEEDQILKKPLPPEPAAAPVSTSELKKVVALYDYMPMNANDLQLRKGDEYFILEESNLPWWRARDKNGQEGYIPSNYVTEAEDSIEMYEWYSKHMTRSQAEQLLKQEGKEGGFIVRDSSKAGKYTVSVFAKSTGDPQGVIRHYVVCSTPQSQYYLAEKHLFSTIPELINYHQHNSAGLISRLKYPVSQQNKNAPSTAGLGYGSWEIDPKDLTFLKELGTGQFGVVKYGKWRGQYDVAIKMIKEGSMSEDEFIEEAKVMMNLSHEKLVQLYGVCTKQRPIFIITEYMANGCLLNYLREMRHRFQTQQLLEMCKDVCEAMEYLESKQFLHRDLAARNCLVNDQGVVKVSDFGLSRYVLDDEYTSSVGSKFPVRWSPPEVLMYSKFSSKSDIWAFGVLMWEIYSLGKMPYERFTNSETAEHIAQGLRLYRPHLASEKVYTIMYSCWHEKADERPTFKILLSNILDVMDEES

SMILES: Cn1cc(Cl)c2c(Oc3c(F)cc(Nc4cc(Cl)nc(N)n4)cc3F)ccnc21 [BAY-4900]
- inhibition [1]: -1.36%

SMILES: Cc1c[nH]c2nccc(Oc3c(F)cc(Nc4cc(Cl)nc(N)n4)cc3F)c12 [BAY-549]
- inhibition [2]: 1%
- inhibition [3]: -3%
- inhibition [4]: 7%
- inhibition [5]: 72%
- inhibition [6]: 99%
- inhibition [7]: 28%
- inhibition [8]: -6%
- CC50 ([9]; Mus musculus, B16-F10, read-out: LC50 (the source's name)): > 100 µM
- Mean % growth (n = 2) for 1.0 µM probe concentration ([9]; ± SEM 1 % growth): 106%
- Mean % growth (n = 2) for 0.1 µM probe concentration ([9]; ± SEM 4 % growth): 94%
- Mean % growth (n = 2) for 0.01 µM probe concentration ([9]; ± SEM 5 % growth): 98%
- Mean % growth (n = 2) for 100.0 µM probe concentration ([9]; ± SEM 5 % growth): -46%
- Mean % growth (n = 2) for 10.0 µM probe concentration ([9]; ± SEM 9 % growth): 53%
- IC50 (T47D; Homo sapiens, T47D): 2.9 µM
- TGI (T47D; Homo sapiens, T47D): 15 µM
- CC50 (T47D; Homo sapiens, T47D, read-out: LC50 (the source's name)): 75 µM
- Mean % growth (n = 2) for 1.0 µM probe concentration (T47D; ± SEM 1 % growth): 86%
- Mean % growth (n = 2) for 100.0 µM probe concentration (T47D; ± SEM 2 % growth): -45%
- Mean % growth (n = 2) for 10.0 µM probe concentration (T47D; ± SEM 4 % growth): -2%
- Mean % growth (n = 2) for 0.01 µM probe concentration (T47D; ± SEM 6 % growth): 106%
- Mean % growth (n = 2) for 0.1 µM probe concentration (T47D; ± SEM 8 % growth): 97%
- inhibition [10]: 20%
- IC50 (SK-N-MC; Homo sapiens, SK-N-MC): 7.9 µM
- TGI (SK-N-MC; Homo sapiens, SK-N-MC): 20 µM
- CC50 (SK-N-MC; Homo sapiens, SK-N-MC, read-out: LC50 (the source's name)): 52 µM
- Mean % growth (n = 2) for 10.0 µM probe concentration (SK-N-MC; ± SEM 3 % growth): 38%
- Mean % growth (n = 2) for 0.1 µM probe concentration (SK-N-MC; ± SEM 4 % growth): 103%
- Mean % growth (n = 2) for 1.0 µM probe concentration (SK-N-MC; ± SEM 5 % growth): 98%
- Mean % growth (n = 2) for 0.01 µM probe concentration (SK-N-MC; ± SEM 6 % growth): 103%
- Mean % growth (n = 2) for 100.0 µM probe concentration (SK-N-MC; ± SEM 8 % growth): -72%
- Mean % growth (n = 2) for 10.0 µM probe concentration (Hep 3B2): 11%
- IC50 (Hep 3B2; Homo sapiens, Hep3B): 1.3 µM
- TGI (Hep 3B2; Homo sapiens, Hep3B): 45 µM
- CC50 (Hep 3B2; Homo sapiens, Hep3B, read-out: LC50 (the source's name)): > 100 µM
- Mean % growth (n = 2) for 0.1 µM probe concentration (Hep 3B2; ± SEM 3 % growth): 82%
- Mean % growth (n = 2) for 100.0 µM probe concentration (Hep 3B2; ± SEM 5 % growth): -4%
- Mean % growth (n = 2) for 1.0 µM probe concentration (Hep 3B2; ± SEM 6 % growth): 51%
- Mean % growth (n = 2) for 0.01 µM probe concentration (Hep 3B2; ± SEM 8 % growth): 90%
- inhibition [11]: 86%
- inhibition [12]: 20%
- inhibition [13]: 31.9%
- inhibition [14]: 87%
- inhibition [15]: 20%
- inhibition [16]: 13%
- IC50 (PC-6; Homo sapiens, PC-6): 4.2 µM
- TGI (PC-6; Homo sapiens, PC-6): 18 µM
- CC50 (PC-6; Homo sapiens, PC-6, read-out: LC50 (the source's name)): 76 µM
- Mean % growth (n = 2) for 0.1 µM probe concentration (PC-6; ± SEM 5 % growth): 84%
- Mean % growth (n = 2) for 100.0 µM probe concentration (PC-6; ± SEM 6 % growth): -65%
- Mean % growth (n = 2) for 10.0 µM probe concentration (PC-6; ± SEM 7 % growth): 32%
- Mean % growth (n = 2) for 0.01 µM probe concentration (PC-6; ± SEM 9 % growth): 105%
- Mean % growth (n = 2) for 1.0 µM probe concentration (PC-6; ± SEM 9 % growth): 70%
- inhibition [17]: 10%
- inhibition [18]: 12%
- inhibition [19]: 4%
- Mean % growth (n = 2) for 0.01 µM probe concentration (DLD-1): 101%
- IC50 (DLD-1; Homo sapiens, DLD-1): 2.4 µM
- TGI (DLD-1; Homo sapiens, DLD-1): > 100 µM
- CC50 (DLD-1; Homo sapiens, DLD-1, read-out: LC50 (the source's name)): > 100 µM
- Mean % growth (n = 2) for 10.0 µM probe concentration (DLD-1; ± SEM 1 % growth): 24%
- Mean % growth (n = 2) for 100.0 µM probe concentration (DLD-1; ± SEM 1 % growth): 5%
- Mean % growth (n = 2) for 0.1 µM probe concentration (DLD-1; ± SEM 2 % growth): 94%
- Mean % growth (n = 2) for 1.0 µM probe concentration (DLD-1; ± SEM 4 % growth): 66%
- inhibition [20]: 16%
